Like-named read-outs stand apart in the source and are kept apart here.
Experiments:
Test in all cases: Post-emergence efficacy, Method A
Format in all cases: in vivo
[1] = system: Digitaria sanguinalis (DIGSA); settings: evaluated after 13 days; for pest or weed control at 500 g/ha: Digitaria sanguinalis, post-emergence, 312 h
Outline: (§1)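 Plants grown 14 days in glasshouse (24/16 °C, 14 h light, 65% humidity) were sprayed with compound formulated in IF50. The spray was diluted in 0.25% or 1% Empicol ESC70 plus 1% ammonium sulphate. Damage was scored 13 days later on a 0-100 scale, where 100 is total damage.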

[2] = system: Ipomoea hederacea (IPOHE); settings: evaluated after 13 days; for pest or weed control at 500 g/ha: Ipomoea hederacea, post-emergence, 312 h
Outline: as §1

[3] = system: Chenopodium album (CHEAL); settings: evaluated after 13 days; for pest or weed control at 500 g/ha: Chenopodium album, post-emergence, 312 h
Outline: as §1

[4] = system: Amaranthus palmeri (AMAPA); settings: evaluated after 13 days; for pest or weed control at 500 g/ha: Amaranthus palmeri, post-emergence, 312 h
Outline: as §1

[5] = system: Echinochloa crus-galli (ECHCG); settings: evaluated after 13 days; for pest or weed control at 500 g/ha: Echinochloa crus-galli, post-emergence, 312 h
Outline: as §1

Lolium perenne (LOLPE) = settings: evaluated after 13 days; for pest or weed control at 500 g/ha: Lolium perenne, post-emergence, 312 h
Outline: as §1

Setaria faberi (SETFA) = settings: evaluated after 13 days; for pest or weed control at 500 g/ha: Setaria faberi, post-emergence, 312 h
Outline: as §1

Eleusine indica (ELEIN) = settings: evaluated after 13 days; for pest or weed control at 500 g/ha: Eleusine indica, post-emergence, 312 h
Outline: as §1

[6] = system: Euphorbia heterophylla (EPHHL); settings: evaluated after 13 days; for pest or weed control at 500 g/ha: Euphorbia heterophylla, post-emergence, 312 h
Outline: as §1

[7] = Application rate 500 g/Ha, 100=total damage to plant, 0=no damage to plant, read-out: Control of weed species after post-emergence application, DIGSA
[8] = Application rate 500 g/Ha, 100=total damage to plant, 0=no damage to plant, read-out: Control of weed species after post-emergence application, IPOHE
[9] = Application rate 500 g/Ha, 100=total damage to plant, 0=no damage to plant, read-out: Control of weed species after post-emergence application, CHEAL
[10] = Application rate 500 g/Ha, 100=total damage to plant, 0=no damage to plant, read-out: Control of weed species after post-emergence application, AMAPA
[11] = Application rate 500 g/Ha, 100=total damage to plant, 0=no damage to plant, read-out: Control of weed species after post-emergence application, ECHCG
[12] = Application rate 500 g/Ha, 100=total damage to plant, 0=no damage to plant, read-out: Control of weed species after post-emergence application, LOLPE
[13] = Application rate 500 g/Ha, 100=total damage to plant, 0=no damage to plant, read-out: Control of weed species after post-emergence application, SETFA
[14] = Application rate 500 g/Ha, 100=total damage to plant, 0=no damage to plant, read-out: Control of weed species after post-emergence application, ELEIN
[15] = Application rate 500 g/Ha, 100=total damage to plant, 0=no damage to plant, read-out: Control of weed species after post-emergence application, EPHHL
[16] = Application Rate 500 g/Ha, Method A, read-out: Control of weed species after post-emergence application, DIGSA (100=total damage to plant; 0=no damage to plant)
[17] = Application Rate 500 g/Ha, Method A, read-out: Control of weed species after post-emergence application, IPOHE (100=total damage to plant; 0=no damage to plant)
[18] = Application Rate 500 g/Ha, Method A, read-out: Control of weed species after post-emergence application, CHEAL (100=total damage to plant; 0=no damage to plant)
[19] = Application Rate 500 g/Ha, Method A, read-out: Control of weed species after post-emergence application, AMAPA (100=total damage to plant; 0=no damage to plant)
[20] = Application Rate 500 g/Ha, Method A, read-out: Control of weed species after post-emergence application, ECHCG (100=total damage to plant; 0=no damage to plant)
[21] = Application Rate 500 g/Ha, Method A, read-out: Control of weed species after post-emergence application, LOLPE (100=total damage to plant; 0=no damage to plant)
[22] = Application Rate 500 g/Ha, Method A, read-out: Control of weed species after post-emergence application, SETFA (100=total damage to plant; 0=no damage to plant)
[23] = Application Rate 500 g/Ha, Method A, read-out: Control of weed species after post-emergence application, ELEIN (100=total damage to plant; 0=no damage to plant)
[24] = Application Rate 500 g/Ha, Method A, read-out: Control of weed species after post-emergence application, EPHHL (100=total damage to plant; 0=no damage to plant)
[25] = Application rate 500 g/Ha, 100=total damage to plant, 0=no damage to plant

Compound | pest or weed control at 500 g/ha [1, 7] [%] | pest or weed control at 500 g/ha [2, 8] [%] | pest or weed control at 500 g/ha [3, 9] [%] | pest or weed control at 500 g/ha [4, 10] [%] | pest or weed control at 500 g/ha [5, 11] [%] | pest or weed control at 500 g/ha (Lolium perenne (LOLPE); [12]) [%] | pest or weed control at 500 g/ha (Setaria faberi (SETFA); [13]) [%] | pest or weed control at 500 g/ha (Eleusine indica (ELEIN); [14]) [%] | pest or weed control at 500 g/ha [6, 15] [%] | other results
Nc1cnc(-c2cc[n+](CCC(=O)[O-])nc2)nc1 [Compound A44] | 40 | 20 | 10 | 40 | 30 | 20 | 60 | 20 | 20 | 
O=S(=O)(O)CC[n+]1ccc(-c2ccncc2F)cn1 [Compound A159] |  |  |  |  |  |  |  |  |  | pest or weed control at 500 g/ha [1, 16]: 30%; pest or weed control at 500 g/ha [2, 17]: 50%; pest or weed control at 500 g/ha [3, 18]: 100%; pest or weed control at 500 g/ha [4, 19]: 100%; pest or weed control at 500 g/ha [5, 20]: 70%; pest or weed control at 500 g/ha (Lolium perenne (LOLPE); [21]): 40%; pest or weed control at 500 g/ha (Setaria faberi (SETFA); [22]): 60%; pest or weed control at 500 g/ha (Eleusine indica (ELEIN); [23]): 50%; pest or weed control at 500 g/ha [6, 24]: 80%
O=S(=O)([O-])CC[n+]1ccc(-c2ncc(C(F)(F)F)cc2Cl)cn1 [Compound A175] |  |  |  |  |  |  |  |  |  | pest or weed control at 500 g/ha [1, 16]: 40%; pest or weed control at 500 g/ha [2, 17]: 20%; pest or weed control at 500 g/ha [3, 18]: 60%; pest or weed control at 500 g/ha [4, 19]: 30%; pest or weed control at 500 g/ha [5, 20]: 30%; pest or weed control at 500 g/ha (Lolium perenne (LOLPE); [21]): 10%; pest or weed control at 500 g/ha (Setaria faberi (SETFA); [22]): 30%; pest or weed control at 500 g/ha (Eleusine indica (ELEIN); [23]): 40%; pest or weed control at 500 g/ha [6, 24]: 30%
Cc1cccc(-c2cc[n+](CCS(=O)(=O)[O-])nc2)n1 [Compound A75] | 50 | 20 | 30 | 60 | 50 | 50 | 70 | 60 | 60 | 
O=C(O)CC[n+]1ccc(-c2ncccc2C(F)(F)F)cn1 [Compound A128] | 30 | 0 | 10 | 30 | 30 | 40 | 30 | 50 | 0 | 
O=S(=O)([O-])CC[n+]1ccc(-c2ncc(F)cn2)cn1 [Compound A19] | 50 | 40 | 60 | 100 | 40 | 20 | 60 | 60 | 60 | 
O=C([O-])CC[n+]1ccc(-c2nccc(C(F)(F)F)n2)cn1 [Compound A39] | 70 | 0 | 90 | 100 | 30 | 60 | 40 | 80 | 90 | 
Cc1n[n+](CCC(=O)O)ccc1-c1ncccn1.[Cl-] [Compound A133] |  |  |  |  |  |  |  |  |  | Control of weed species after post-emergence application, DIGSA [1, 25]: 70; Control of weed species after post-emergence application, IPOHE [2, 25]: 20; Control of weed species after post-emergence application, CHEAL [3, 25]: 40; Control of weed species after post-emergence application, AMAPA [4, 25]: 60; Control of weed species after post-emergence application, ECHCG [5, 25]: 70; Control of weed species after post-emergence application, LOLPE (Lolium perenne (LOLPE); [25]): 40; Control of weed species after post-emergence application, SETFA (Setaria faberi (SETFA); [25]): 90; Control of weed species after post-emergence application, ELEIN (Eleusine indica (ELEIN); [25]): 90; Control of weed species after post-emergence application, EPHHL [6, 25]: 20

Source: patent US20220125051A1, “PRE-HARVEST DESICCATION METHOD” (SYNGENTA CROP PROTECTION AG, priority 2019, published 2022)
